# Experimental data taken from article PMC12040169 (PLOS Biology, 2025).
# Assay: in vitro
# Details: human, hela cells, % viability
row,SMILES,"viability at 28.5 h, 10 µM"
1,CCn1cc(C(=O)O)c(=O)c2cnc(N3CCN(C(=S)Nc4ccc5c(c4)OCO5)CC3)nc21 [CBK267930],90.6%
2,CC(=O)Nc1ccc(S(=O)(=O)NC2(C(F)(F)F)N=C(c3ccccc3)NC2=O)cc1 (stereo not drawn) [CBK267932],113%
3,CCc1cccc(C)c1NC(=O)CN(c1ccc(Br)c(C)c1)S(C)(=O)=O [CBK267935],102%
4,O=C(CSc1ccc(Cl)cc1)Nc1cccc2nsnc12 [CBK267936],90.8%
5,COc1ccccc1C(=O)Nc1ccccc1N1CCN(C)CC1 [CBK267938],91.8%
6,O=C(NCCOCc1ccc(Cl)cc1)c1cc(-n2cnnc2)ccc1Cl [CBK267939],101%
7,COC(=O)c1ccsc1NC(=O)CN1CCN(Cc2ccc3c(c2)OCO3)CC1 [CBK267940],97.6%
8,COCCCn1c(CCC(=O)O)ccc1-c1cccs1 [CBK267942],121%
9,CCCc1oc(C(=O)O)cc1CN(CC)CC [CBK267943C],92.1%
10,O=C1CC(C(=O)O)SC(NNC(=O)c2ccccc2)=N1 (stereo not drawn) [CBK267944],91.2%
11,CC(C(=O)O)N(c1ccc(Cl)cc1)S(C)(=O)=O (stereo not drawn) [CBK267945],111%
12,O=C(CS(=O)(=O)c1ccccc1)Nc1cccc2nsnc12 [CBK267949],97.4%
13,O=C(O)C1CCCCC1C(=O)Nc1ccc(S(=O)(=O)N2CCCCC2)cc1 (stereo not drawn) [CBK267950],109%
14,O=c1c2ccccc2[nH]c(=S)n1CCCN1CCC(Cc2ccccc2)CC1 [CBK267952],86.2%
15,OC(Cn1ccc2ccccc21)Cn1c(Cc2ccccc2)nc2ccccc21 (stereo not drawn) [CBK267954],97.7%
16,CN(C)S(=O)(=O)N(CC(=O)Nc1cccnc1)c1ccccc1 [CBK267958],119%
17,O=C(NCCCN1CCCC1)Nc1ccccc1[N+](=O)[O-] [CBK267959],97%
18,Nc1nonc1-c1nc2ccccc2n1Cc1cc2c(cc1Br)OCO2 [CBK267961],105%
19,CCOc1ccc(CNc2ccc(S(N)(=O)=O)cc2)cc1 [CBK267962],89.3%
20,c1ccc2oc(NC3=NCN(Cc4ccc5c(c4)OCO5)CN3)nc2c1 [CBK267964],95.1%
21,N#Cc1ccccc1CSc1nc(N)cc(O)n1 [CBK267967],98.3%
22,N#Cc1c(NC(=O)CN2CCN(Cc3ccccc3)CC2)sc2c1CCCC2 [CBK267969],99.6%

row,SMILES,"viability at 28.5 h, 10 µM"
1,O=C(CN1CCCCC1)Nc1sc2c(c1C(=O)Nc1ccccc1)CCCC2 [CBK267974],104%
2,S=C(Nc1ccccc1)N(CCN1CCOCC1)Cc1cccc(Cl)c1 [CBK267975],103%
3,COc1cc(/C=C/c2[nH]c(=O)[nH]c(=O)c2[N+](=O)[O-])cc(Br)c1OCC(=O)O [CBK267977],91.5%
4,Cc1cc(OCCCC(=O)Nc2cccc([N+](=O)[O-])c2)cc(C)c1Cl [CBK267978],97.8%
5,CC(Oc1ccc(-c2ccccc2)cc1)C(=O)Nc1ccc(S(N)(=O)=O)cc1 (stereo not drawn) [CBK267979],87.2%
6,CCn1c(SCC(=O)Nc2cccc([N+](=O)[O-])c2)nnc1-c1cc(Br)ccc1O [CBK267980],86%
7,Cc1ccc([N+](=O)[O-])cc1NC(=O)CN(Cc1ccc(Cl)cc1)S(C)(=O)=O [CBK267981],87.8%
8,CS(=O)(=O)N(CC(=O)NCc1ccccn1)Cc1ccc(Cl)cc1 [CBK267982],94.6%
9,NC(=O)c1ccccc1NC(=O)CSc1nc(N)cc(N)n1 [CBK267983],115%
10,CCCc1oc(C(=O)O)cc1CN1CCOCC1 [CBK267984C],106%
11,COc1ccc(S(=O)(=O)N2CCC(C(=O)Nc3cccc(F)c3)CC2)cc1C [CBK267987],92%
12,COc1ccccc1Oc1nnnn1-c1ccc(C(N)=O)cc1 [CBK267988],96%
13,CC(=O)N1CCN(Cc2nc3cc(NC(=O)Cn4nc(C)c5ccccc5c4=O)ccc3n2C)CC1 [CBK267989],87.8%
14,COc1ccc(C)cc1S(=O)(=O)N(CC(=O)Nc1ccccc1C)c1ccc(Cl)cc1 [CBK267995],90.1%
15,COc1cc(OC)cc(C(=O)OCc2ccc(F)cc2)c1 [CBK267996],95.6%
16,O=C(CC1C(=O)NCCN1C(=S)Nc1ccccc1)Nc1ccc2c(c1)OCCO2 (stereo not drawn) [CBK267999],95.9%
17,CCC(NC(=O)Nc1ccccc1C(=O)O)(C(F)(F)F)C(F)(F)F [CBK268000],93.2%
18,COc1ccc(C(=O)Nc2ccccc2N2CCN(C)CC2)cc1Cl [CBK268001],90.5%
19,CC(Oc1ccc(-c2ccccc2)cc1)C(=O)Nc1ccc2c(c1)OCCO2 (stereo not drawn) [CBK268002],92.3%
20,Cc1cc(SCC(=O)Nc2cccc3ccccc23)nc2c(C)cccc12 [CBK268005],92.2%
21,O=C(CSc1nnc(-c2ccco2)o1)Nc1cccc2nsnc12 [CBK268006],93.2%
22,O=C(O)C1CCCCC1C(=O)Nc1ccc(S(=O)(=O)N2CCOCC2)cc1 (stereo not drawn) [CBK268010],104%

row,SMILES,"viability at 28.5 h, 10 µM"
1,COCCCn1c(CCC(=O)O)ccc1-c1ccc(Br)cc1 [CBK268015],97.6%
2,Cc1cc(C)nc(Nc2n[nH]c(COc3ccccc3)n2)n1 [CBK268016],93.2%
3,O=C(Nc1ccc(S(=O)(=O)N2CCCCCC2)cc1)c1ccc(NS(=O)(=O)c2ccccc2)cc1 [CBK268018],90.4%
4,CC(NC(=O)Nc1ccccc1O)(C(F)(F)F)C(F)(F)F [CBK268019],101%
5,O=C(O)c1ccccc1-c1nc(-c2ccccc2F)no1 [CBK268022],100%
6,CC(Oc1cccc(Br)c1)C(=O)NCCC(=O)O (stereo not drawn) [CBK268024],90.9%
7,O=C(Cn1nnc(-c2ccc3c(c2)OCO3)n1)Nc1ccccc1C(=O)O [CBK268025],101%
8,O=C(O)c1cccc(NC(=O)c2cc(-n3cnnc3)ccc2Cl)c1 [CBK268026],83%
9,CCn1cc(C(=O)O)c(=O)c2cc(F)c(N3CCN(C(=S)Nc4ccc5c(c4)OCO5)CC3)cc21 [CBK268027],83.1%
10,CC(CNC(=O)C1CCCCC1C(=O)O)c1ccccc1 (stereo not drawn) [CBK268028],97.1%
11,O=C(O)c1cccc(CSc2nnc(Cc3ccccc3)[nH]2)c1 [CBK268029],94.1%
12,CCNC(=O)N1C(CC(=O)OCC)C(=O)NC2CCCCC21 (stereo not drawn) [CBK268030],116%
13,CC(=O)Nc1ccc(C(=O)CSc2nc(-c3ccccc3)cs2)cc1 [CBK268038],101%
14,Cc1nnc(Nc2ccc3c(c2)nc2n3CCN(C3CCCCC3)C2)c2ccccc12 [CBK268042],90.9%
15,Cc1nnc(SCC(=O)NCCc2ccccc2)nc1O [CBK268045],92%
16,Cc1cc(NC(=O)C(=O)NCCCN2CCOCC2)ccc1Br [CBK268046],94.7%
17,CCOc1cc(C)c(Cl)cc1S(=O)(=O)NCc1ccccn1 [CBK268047],108%
18,Cc1ccc(Cl)cc1N=C(N)N=C(N)N [CBK268049],98.8%
19,Cc1cc(=O)oc2cc(OC(C)C(=O)Nc3sc4c(c3C(N)=O)CCCC4)ccc12 (stereo not drawn) [CBK268050],94.6%
20,O=c1[nH]c(/C=C/c2cc(Br)ccc2OCc2cccc3ccccc23)c([N+](=O)[O-])c(=O)[nH]1 [CBK268052],86.3%
21,N#Cc1c(NC(=O)Cn2cnc3sc(-c4ccccc4)cc3c2=O)sc2c1CCC2 [CBK268053],95.2%
22,Cc1ccc(C(=O)Nc2ccc(S(=O)(=O)N3CCCC3)cc2)cc1S(=O)(=O)Nc1ccccc1 [CBK268054],47.4%

row,SMILES,"viability at 28.5 h, 10 µM"
1,O=C(O)c1ccc(-c2ccc(/C=C/c3[nH]c(=O)[nH]c(=O)c3[N+](=O)[O-])o2)cc1 [CBK268055],105%
2,Cc1[nH]c2ccccc2c1C(=O)CSc1n[nH]c(N)n1 [CBK268056],98.3%
3,O=C(CN1CCCC1=O)NC1(C(F)(F)F)NC(=O)N(c2ccc(F)cc2)C1=O (stereo not drawn) [CBK268057],98.1%
4,O=C(CN1C(=O)C2CCC(c3ccccc3)CC2C1=O)Nc1cccc2ccccc12 (stereo not drawn) [CBK268061],86%
5,CC1CCN(c2nnnc3c2sc2nc(N4CCOCC4)c4c(c23)CC(C)(C)SC4)CC1 [CBK268062],90.4%
6,COc1ccc(NC(=O)CSc2nc(N)n[nH]2)cc1Cl [CBK268065],108%
7,O=[N+]([O-])c1ccc(S(=O)(=O)NCCSCc2cccc(Cl)c2)cc1 [CBK268066],107%
8,Cc1cccc(NS(=O)(=O)c2ccc(OCC(=O)Nc3ccc4c(c3)OCCO4)cc2)c1 [CBK268068],111%
9,CCC1CCCCN1S(=O)(=O)c1ccc(NC(=O)Cn2c(=O)oc3ccccc32)cc1 (stereo not drawn) [CBK268069],89.2%
10,CNc1ccc(C(O)(C(F)(F)F)C(F)(F)F)cc1C(O)(C(F)(F)F)C(F)(F)F [CBK268070],96.6%
11,CN1CCN(c2ccccc2NC(=O)c2ccc3c(c2)OCCO3)CC1 [CBK268072],101%
12,O=[N+]([O-])c1ccc(N2CCNCC2)cc1NCc1ccccn1 [CBK268074],122%
13,Cc1cc(C(F)(F)F)nc(SCC(=O)N2c3ccccc3Sc3ccccc32)n1 [CBK268078],90.8%
14,CN1CCN(C(=O)CN(c2ccccc2)S(=O)(=O)N(C)C)CC1 [CBK268079],86.6%
15,CCOc1cc(C)c(C(C)C)cc1S(=O)(=O)NCc1ccccn1 [CBK268080],104%
16,O=C(O)c1cc(Nc2nc(N3CCOCC3)nc(N3CCOCC3)n2)ccc1Cl [CBK268081],97.5%
17,CCC(CO)NCc1ccc(-c2ccccc2)cc1 (stereo not drawn) [CBK268082C],97.6%
18,c1cc(-c2nnn[nH]2)ccc1OCc1nnn[nH]1 [CBK268083],93.1%
19,Cc1nn2c(CN(C(=O)c3ccccc3)c3ccccc3)nnc2c2ccccc12 [CBK268084],87.7%
20,Cc1nnc(SCc2ccc(CSc3nnc(C)c(=O)[nH]3)cc2)[nH]c1=O [CBK268085],86.1%
21,Cc1cc(Br)ccc1NC(=O)CSc1nnc(-c2ccccc2O)n1-c1ccccc1 [CBK268086],90.7%
